# Assay results: US7030134B2, “Pyrazolopyridinyl pyridine and pyrimidine therapeutic compounds” (SmithKline Beecham Corporation, priority 2001, dated 2006)
# System: HSV-1
# Assay: HSV-1 replication in infected Vero 76 cells, DNA hybridization capture assay
# Format: cell-based, herpes simplex virus 1
# Conditions: Human alphaherpesvirus 1; HSV-1 (MOI=0.001) in Vero 76 cells, 40–48 hours incubation, HSV DNA hybridization chemiluminescence readout; read-out: IC50
# Description: Vero 76 cells were maintained in MEM with Earle's salts, L-glutamine, 8% FBS (Hyclone, A-1111-L) and 100 units/mL Penicillin-100 μg/mL Streptomycin. For assay conditions, FBS was reduced to 2%. Cells are seeded into 96-well tissue culture plates at a density of 5×10^4 cells/well after being incubated for 45 min at 37° C. in the presence of HSV-1 or HSV-2 (MOI=0.001). Test compounds are added to the wells and the plates are incubated at 37° C. for 40–48 hours. Cell lysates are prepared as follows: media was removed and replaced with 150 μL/well 0.2 N NaOH with 1% Igepal CA 630 or NP-40. Plates were incubated up to 14 days at room temperature in a humidified chamber to prevent evaporation.
# For the detection probe, a gel-purified, digoxigenin-labeled, […] PCR fragment of the HSV UL-15 sequence was utilized. PCR conditions included 0.5 μM primers, 180 μM dTTP, 20 μM dUTP-digoxigenin (Boehringer Mannheim 1558706), 200 μM each of dATP, dCTP, and dGTP, 1×PCR Buffer II (Perkin Elmer), 2.5 mM MgCl2, 0.025 units/μL of AmpliTaq Gold polymerase (Perkin Elmer), and 5 ng of gel-purified HSV DNA per 100 μL. Extension conditions were 10 min at 95° C., followed by 30 cycles of 95° C. for 1 min, 55° C. for 30 sec, and 72° C. for 2 min. The amplification was completed with a 10-min incubation at 72° C. Primers were selected to amplify a 728 bp probe spanning a section of the HSV1 UL 15 open reading frame (nucleotides 249–977). Single-stranded transcripts were purified with Promega M13 Wizard kits. The final product was mixed 1:1 with a mixture of 6 M GuSCN, 100 mM EDTA and 200 μg/mL herring sperm DNA and stored at 4° C.
# The capture DNA plasmid (HSV UL13 region in pUC) was linearized by cutting with Xba I, denatured for 15 min at 95° C. and diluted immediately into Reacti-Bind DNA Coating Solution (Pierce, 17250, diluted 1:1 with TE buffer, pH 8) at 1 ng/μL 75 μL/well were added to Corning (#3922 or 9690) white 96-well plates and incubated at room temperature for at least 4 hrs before washing twice with 300 μL/well 0.2×SSC/0.05% Tween-20 (SSC/T buffer). The plates were then incubated overnight at room temperature with 150 μL/well 0.2 N NaOH, 1% IGEPAL and 10 μg/mL herring sperm DNA.
# Twenty-seven (27) μL of cell lysate was combined with 45 μL of hybridization solution (final concentration:3M GuSCN, 50 mM EDTA, 100 μg/ml salmon sperm DNA, 5× Denhardt's solution, 0.25×APE, and 5 ng of the digoxigenin-labeled detection probe). APE is 1.5 M NH4-acetate, 0.15 M NH4H2 phosphate, and 5 mM EDTA adjusted to pH 6.0. Mineral oil (50 μL) was added to prevent evaporation. The hybridization plates were incubated at 95° C. for 10 minutes to denature the DNA, then incubated at 42° C. overnight. The wells were washed 6× with 300 μL/well SSC/T buffer then incubated with 75 μL/well anti-digoxigenin-HRP-conjugated antibody (Boehringer Mannheim 1207733, 1:5000 in TE) for 30 min at room temperature. The wells were washed 6× with 300 μL/well with PBS/0.05% Tween-20 before 75 μL/well SuperSignal LBA substrate (Pierce) was added. The plates were incubated at room temperature for 30 minutes and chemiluminescence was measured in a Wallac Victor reader.
# The following results were obtained for HSV-1.
row,IC50 [nM],Compound
1,22000,"COc1ccc(-c2nn3c(NC4CCCC4)cc(Cl)cc3c2-c2ccnc(SC)n2)cc1 [Example 36, N-{5-Chloro-2-(4-methoxyphenyl)-3-[2-(methylsulfanyl)-4-pyrimidinyl]pyrazolo[1,5-a]pyridin-7-yl}-N-cyclopentylamine]"
2,330,"COc1ccc(-c2nn3c(NC4CC4)cc(Cl)cc3c2-c2ccnc(NC3CCCC3)n2)cc1 [Example 30, N-{4-[5-Chloro-7-(cyclopropylamino)-2-(4-methoxyphenyl)pyrazolo[1,5-a]pyridin-3-yl]-2-pyrimidinyl}-N-cyclopentylamine]"
3,> 40000,"Fc1ccc(-c2nn3c(NC4CCCC4)c(Br)cc(Br)c3c2-c2nc(NC3CCCC3)ncc2Br)cc1 [Example 43, 4,6-Dibromo-3-[5-bromo-2-(cyclopentylamino)pyrimidin-4-yl]-N-cyclopentyl-2-(4-fluorophenyl)pyrazolo[1,5-a]pyridin-7-amine]"
4,800,"Clc1cc(NC2CC2)n2nc(-c3ccc(OCC4CC4)cc3)c(-c3ccnc(NC4CCCC4)n3)c2c1 [Example 32, 5-Chloro-3-[2-(cyclopentylamino)-4-pyrimidinyl]-N-cyclopropyl-2-[4-(cyclopropylmethoxy)phenyl]pyrazolo[1,5-a]pyridin-7-amine]"
5,3500,"Clc1cccc(-c2nn3c(Cl)cc(Cl)cc3c2-c2ccnc(NC3CCCC3)n2)c1 [Example 28, N-cyclopentyl-4-[5,7-dichloro-2-(3-chlorophenyl)pyrazolo[1,5-a]pyridin-3-yl]-2-pyrimidinamine]"
6,900,"Fc1ccc(-c2nn3c(NC4CCCC4)c(Cl)ccc3c2-c2ccnc(NC3CCCC3)n2)cc1 [Example 44, 6-Chloro-N-cyclopentyl-3-[2-(cyclopentylamino)pyrimidin-4-yl]-2-(4-fluorophenyl)pyrazolo[1,5-a]pyridin-7-amine]"
7,250,"COc1ccc(-c2nn3c(NC4CCCC4)cc(Cl)cc3c2-c2ccnc(NC3CCCC3)n2)cc1 [Example 18, N-{4-[5-Chloro-7-(cyclopentylamino)-2-(4-methoxyphenyl)pyrazolo-[1,5-a]pyridin-3-yl]-2-pyrimidinyl}-N-cyclopentylamine]"
8,200,"Fc1ccc(-c2nn3c(NC4CC4)cc(Cl)cc3c2-c2ccnc(NC3CCCC3)n2)cc1 [Example 22, 5-Chloro-3-[2-(cyclopentylamino)-4-pyrimidinyl]-N-cyclopropyl-2-(4-fluorophenyl)pyrazolo[1,5-a]pyridin-7-amine]"
9,600,"Cc1cccc(-c2nn3c(NC4CCCC4)cc(Cl)cc3c2-c2ccnc(NC3CC3)n2)c1 [Example 21, 5-Chloro-N-cyclopentyl-3-[2-(cyclopropylamino)pyrimidin-4-yl]-2-(3-methylphenyl)pyrazolo[1,5-a]pyridin-7-amine]"
10,1300,"Fc1ccc(-c2nn3c(Cl)cc(NC4CCCC4)cc3c2-c2ccnc(NC3CCCC3)n2)cc1 [Example 41, 7-Chloro-N-cyclopentyl-3-[2-(cyclopentylamino)pyrimidin-4-yl]-2-(4-fluorophenyl)pyrazolo[1,5-a]pyridin-5-amine]"
11,1500,"Oc1ccc(-c2nn3c(NC4CC4)cc(Cl)cc3c2-c2ccnc(NC3CCCC3)n2)cc1 [Example 31, 4-[5-Chloro-3-[2-(cyclopentylamino)-4-pyrimidinyl]-7-(cyclopropylamino)pyrazolo[1,5-a]pyridin-2-yl]phenol]"
12,2000,"Oc1ccc(-c2nn3c(NC4CCCC4)cc(Cl)cc3c2-c2ccnc(NC3CC3)n2)cc1 [Example 39, 4-{5-Chloro-7-(cyclopentylamino)-3-[2-(cyclopropylamino)-4-pyrimidinyl]pyrazolo[1,5-a]pyridin-2-yl}phenol]"

# The next lines start with the compound.
row,Compound,IC50 [nM]
1,"O=C(NO)c1ccc2c(-c3ccnc(NC4CCCC4)n3)c(-c3ccc(F)cc3)nn2c1NC1CCCC1 [Example 7, 7-(Cyclopentylamino)-3-[2-(cyclopentylamino)-4-pyrimidinyl]-2-(4-fluorophenyl)-N-hydroxypyrazolo[1,5-a]pyridine-6-carboxamide]",1000
2,"CC(C)Nc1cc(Cl)cc2c(-c3ccnc(NC4CCCC4)n3)c(-c3ccc(F)cc3)nn12 [Example 15, 5-Chloro-3-[2-(cyclopentylamino)-4-pyrimidinyl]-2-(4-fluorophenyl)-N-isopropylpyrazolo[1,5-a]pyridin-7-amine]",1450
3,"COc1ccc(-c2nn3c(Cl)cc(Cl)cc3c2-c2ccnc(NC3CCCC3)n2)cc1 [Example 17, N-Cyclopentyl-4-[5,7-dichloro-2-(4-methoxyphenyl)pyrazolo[1,5-a]pyridin-3-yl]-2-pyrimidinamine]",5200
4,"Fc1ccc(-c2nn3c(Cl)cc(Cl)cc3c2-c2ccnc(NC3CCCC3)n2)cc1 [Example 12, N-Cyclopentyl-4-[5,7-dichloro-2-(4-fluorophenyl)pyrazolo[1,5-a]pyridin-3-yl]-2-pyrimidinamine]",7000
5,"Fc1ccc(-c2nn3c(NC4CCCC4)cc(Cl)cc3c2-c2ccnc(NC3CCCC3)n2)cc1 [Example 13, N-{4-[5-Chloro-7-(cyclopentylamino)-2-(4-fluorophenyl)pyrazolo[1,5-a]pyridin-3-yl]-2-pyrimidinyl}-N-cyclopentylamine]",170
6,"CN(C)C(=O)c1ccc2c(-c3ccnc(NC4CCCC4)n3)c(-c3ccc(F)cc3)nn2c1NC1CCCC1 [Example 6, 7-(Cyclopentylamino)-3-[2-(cyclopentylamino)-4-pyrimidinyl]-2-(4-fluorophenyl)-N,N-dimethylpyrazolo[1,5-a]pyridine-6-carboxamide]",4000
7,"O=C(NC(CO)CO)c1ccc2c(-c3ccnc(NC4CCCC4)n3)c(-c3ccc(F)cc3)nn2c1NC1CCCC1 [Example 10, 7-(Cyclopentylamino)-3-[2-(cyclopentylamino)-4-pyrimidinyl]-2-(4-fluorophenyl)-N-[2-hydroxy-1-(hydroxymethyl)ethyl]pyrazolo[1,5-a]pyridine-6-carboxamide]",4200
8,"CCOC(=O)c1ccc2c(-c3ccnc(NC4CCCC4)n3)c(-c3ccc(F)cc3)nn2c1NC1CCCC1 [Example 3, Ethyl 7-(cyclopentylamino)-3-[2-(cyclopentylamino)-4-pyrimidinyl]-2-(4-fluorophenyl)pyrazolo[1,5-a]pyridine-6-carboxylate]",6300
9,"Fc1ccc(-c2nn3c(NC4CCCC4)c(C(F)(F)F)ccc3c2-c2ccnc(NC3CCCC3)n2)cc1 [Example 2, N-Cyclopentyl-3-[2-(cyclopentylamino)-4-pyrimidinyl]-2-(4-fluorophenyl)-6-(trifluoromethyl)pyrazolo[1,5-a]pyridin-7-amine]",3300
10,"Fc1ccc(-c2nn3c(NC4CCCC4)cc(NC4CCCC4)cc3c2-c2ccnc(NC3CCCC3)n2)cc1 [Example 14, N^5,N^7-Dicyclopentyl-3-[2-(cyclopentylamino)-4-pyrimidinyl]-2-(4-fluorophenyl)pyrazolo[1,5-a]pyridine-5,7-diamine]",240
11,"O=C(c1ccc2c(-c3ccnc(NC4CCCC4)n3)c(-c3ccc(F)cc3)nn2c1NC1CCCC1)N1CCCC1 [Example 5, N-Cyclopentyl-3-[2-(cyclopentylamino)-4-pyrimidinyl]-2-(4-fluorophenyl)-6-(1-pyrrolidinylcarbonyl)pyrazolo[1,5-a]pyridin-7-amine]",4100
12,"OCc1ccc2c(-c3ccnc(NC4CCCC4)n3)c(-c3ccc(F)cc3)nn2c1NC1CCCC1 [Example 11, [7-(Cyclopentylamino)-3-[2-(cyclopentylamino)-4-pyrimidinyl]-2-(4-fluorophenyl)pyrazolo[1,5-a]pyridin-6-yl]methanol]",970
